Where two headings read alike, the source gives them in different places.
How the values were obtained:
[1] = Hydrolysis in aqueous phosphate buffer, HPLC; type: physicochemical; conditions: serum; read-out: estimated half-life
Method: See Example 16. […] The DMSO was present to increase solubility.
Second, the kinetics of hydrolysis were measured in pH 6.0 phosphate buffer.
A 960 μL solution of pH 7.3 phosphate buffer was heated to 37° C. […] No change in the chromatography was observed if pH, 7.3 phosphate buffer was used as the eluent in place of pH 7.4 TEAA buffer.

MCF-7 cells = assay: In vitro cytotoxicity, colony formation by crystal violet assay, MCF-7
Method: (§1) The term IC50 as used herein refers to the concentration of drug which inhibits cell growth by 50%, i.e., 50% of cells are viable at the IC50 concentration relative to a no-drug control.
(§2) Cells were incubated with drug for 3 h in RPMI (Roswell Park Memorial Institute) 1640 media containing 10% fetal bovine serum and 1% DMSO. Plates, were developed using the crystal violet assay. […] In all cases percent survival was determined by the extent of colony formation six days after drug treatment.
(§3) All tissue culture materials were obtained from Gibco Life Technologies (Grand Island, N.Y.) unless otherwise stated. MCF-7 breast cancer cells were obtained from American Type Culture Collection (Rockville, Md.). […] Both cell lines were maintained in vitro by serial culture in phenol red-free RPMI Media 1640 supplemented with 10% fetal bovine serum (Gemini Bio-Products, Calbasas, Calif.), L-glutamine (2 mM), HEPES buffer (10 mM), penicillin (100 units/mL), and streptomycin (100 μg/mL). […] Cells were maintained at 37° C. in a humidified atmosphere of 5% CO2 and 95% air.
(§4) Cells were dissociated with trypsin-EDTA, counted, and suspended in growth media to a concentration of 5×10^3 cells/mL. Cell suspensions were dispensed in 200 μL aliquots into 96-well tissue culture plates. Plates were then incubated for 24 h at 37° C. in a humidified atmosphere of 5% CO2 and 95% air. The media was replaced with 180 μL of growth media prior to addition of the cytotoxic agents.
(§5) Concentrations were then corrected by measuring the solution absorbance at 480 nm (ε=11,500/mole anthracycline). The solutions were then serially diluted in DMSO to give a series of 100× working concentration solutions. For each concentration, the 100× solution was diluted 1:10 in serum-free RPMI Media 1640. 20 μL of the resulting […] solution was immediately added to the appropriate lane. Additionally, one lane was treated with 20 μL of 10% DMSO in serum-free RPMI (no drug) and one lane replaced with 200 μL of 1.5 M Tris buffer (no cells). The cells were incubated at 37° C. for 3 h. The drug solutions were removed and 200 μL of fresh growth media was added to each well.
(§6) The extent of colony formation was determined by use of a crystal violet staining assay (Gilles, R. J. et al. (1986), “Determination of cell number in monolayer cultures,” Anal. Biochem. 159:109-113; Reile, H. et al. (1990), “Computerized determination of growth kinetic curves and doubling times from cells in microcultures,” Anal. Biochem. 187:262-267). […] The cells were then stained with 75 μL of 0.1% crystal violet in deionized water for 30 min. […] The plates were blotted dry and 200 μL of 70% ethanol in water was added to each well to solublize the dye. The plates were stored at 4° C. until solubilization was complete (about 4 h). The optical density of each well was measured on an ELISA plate reader at 588 nm. Relative colony sizes were determined by comparison of the drug treated lanes to the control lanes.
(§7) MCF-7 breast cancer cells were obtained from American Type Culture Collection (Rockville, Md.). MCF-7/ADR adriamycin resistant breast cancer cells were a gift of Dr. William W. Wells (Michigan State University). Both cell lines were maintained in vitro by serial culture in phenol red-free RPMI Media 1640 supplemented with 10% fetal bovine serum (Gemini Bio-Products, Calbasas, Calif.), L-glutamine (2 mM), HEPES buffer ([…]), penicillin (100 units/mL), and streptomycin (100 μg/mL). […] Cells were maintained at 37° C. in a humidified atmosphere of 5% CO2 and 95% air.
1640 media containing 10% fetal bovine serum. The resulting 90% media/10% DMSO solutions (v/v) were incubated at 37° C. for 6h.

DU-145 = assay: Prostate cancer cell cytotoxicity, crystal violet assay, DU-145; type: cell-based, human; conditions: Homo sapiens
Method: (§8) Toxicity to the three prostate cancer cell lines, LNCaP, DU-145, and PC-3 were measured in two different media, RPMI-1640 and DMEM (Dulbecco's Modified Eagle Medium), both supplemented with 10% fetal bovine serum.
(§9) Cell lines were maintained in vitro in RPMI 1640 media or DMEM, each supplemented with 10% fetal bovine serum, 2 mM L-glutamine, 10 mM HEPES buffer, penicillin (100 units/mL) and streptomycin (100 μg/mL).
(§10) Cells were dissociated with trypsin/EDTA, counted, and suspended in growth media (RPMI or DMEM) to a concentration of 5.6×10^3 cells/mL. Cell suspensions were dispensed in 180 μL aliquots into 96-well tissue culture plates. […] Each 100× solution was diluted 10× in growth media (RPMI or DMEM), and a 20 μL aliquot of the resulting 10× solution was immediately (<10s) added to-the appropriate lane. Additionally, one lane was treated with 20 μL of 10% DMSO in growth media (no drug) and one lane was treated with 200 μL of 1.5 M Tris buffer (no cells). The cells were incubated with the drugs for 3 h at 37° C. The drug solutions were then removed and replaced with 200 μL of fresh media. The cells were incubated for 4 days (7 days for PC-3 cells in DMEM) at 37° C. in a humidified atmosphere of 5% CO2 and 95% air. Cell survival was determined using a crystal violet assay as described earlier (Fenick, D. J. et al (1997) J. Med. Chem. 40: 2452-2461).

PC-3 = assay: Prostate cancer cell cytotoxicity, crystal violet assay, PC-3; type: cell-based, human; conditions: Homo sapiens
Method: as §8, §9, §10

MCF-7/ADR cells = assay: In vitro cytotoxicity, colony formation by crystal violet assay, MCF-7/ADR
Method: as §1, §2, §3, §4, §5, §6, §7
These were then diluted 10× with autoclaved Millipore water.

LNCaP = assay: Prostate cancer cell cytotoxicity, crystal violet assay, LNCaP; type: cell-based, human; conditions: Homo sapiens, LNCaP
Method: as §8, §9, §10

[2] = Stability in DMSO and DMSO/water, NMR or HPLC; type: physicochemical; conditions: HPLC
Method: Crystalline dimeric formaldehyde conjugate of daunorubicin (2.8 mg, 2.6 μmol) was dissolved in 500 μL of DMSO-d6 (stored over 3 A molecular sieves) and analyzed by 400 MHz, ^1H NMR. […] Upon addition of 25 μL of D2O to the 500 μL DMSO-d6 sample, the dimeric formaldehyde conjugate of daunorubicin reacted over a 24 h period to form an equilibrium mixture consisting of 67% dimeric formaldehyde conjugate of daunorubicin and 32% of an intermediate. Because of the complexity of the spectrum, a structure could not be assigned to the intermediate; however, the intermediate appeared to have an oxazolidine ring. Upon addition of 3 equiv of hydrochloric acid in 130 μL of deuterium oxide, hydrolysis to daunorubicin-HCl was complete. The hydrochloric acid solution was prepared by the addition of 10 μL of concentrated HCl to 990 μL of D2O. The formaldehyde released from the dimeric formaldehyde conjugate of daunorubicin was detected as its hydrate. The final product was identified as daunorubicin by comparison of the NMR spectrum with that of a sample of daunorubicin plus 3 equiv of HCl. Further, the final product was isolated by removal of all volatile components under vacuum (0.1 Torr), and its ^1H NMR spectrum was identical to that of daunorubicin-HCl.
Amorphous dimeric formaldehyde conjugate of daunorubicin, when worked up in methylene chloride, was stable in DMSO for at least 4 days. It hydrolyzed with added D2O and hydrochloric acid in a manner similar to that of the crystalline material. When worked up in chloroform, amorphous dimeric formaldehyde conjugate of daunorubicin had less stability in DMSO, presumably due to traces of HCl from the chloroform.
A 1.3 mg sample of N-acetyl-3′-N,4′-O-methylenedaunorubicin was dissolved in […] of DMSO and analyzed over time by HPLC. […] At this time, […] of water was added to the DMSO/N-acetyl monomeric formaldehyde conjugate of daunorubicin solution, establishing a 50:50 DMSO:water mixture (v/v). In this solution, the N-acetyl-3′-N,4′-O-methylenedaunorubicin remained 91% intact (9% degradation to daunorubicin) over a period of 6 days, based upon the HPLC analysis.
A pH 6 triethyl ammonium acetate solution containing 13.1 μmol of epidoxorubicin-HCl and 6.6 mmol of […] was allowed to react in the dark at 25° C. for 30 min. The mixture was then extracted with chloroform with vigorous stirring for 20 min. The chloroform solution was dried over sodium sulfate and the chloroform removed by rotary evaporation. The resulting dry solid was redissolved in 1.0 mL of chloroform. To this was added 10 mL of n-hexane. After 2 days, a large amount of precipitate had formed, which was washed with 3×5 mL of n-hexane, followed by 4×1 mL of water.
The sample was maintained at ambient temperature for 2 h; after this period no change in the spectrum was observed. […] A stock 122 mM solution of HCl in D2O was prepared by adding concentrated hydrochloric acid to D2O. […] Complete hydrolysis occurred upon addition of ca. 2-3 equiv of HCl. A similar experiment was performed using HCl in H2O. […] This solution was incubated at 37° C. for 24 h prior to NMR analysis.

[3] = relative to the respective parent drug
[4] = 50:50 DMSO:water (v/v), over 6 days

Row | Compound | half-life [1] [min] | IC50 (MCF-7 cells; Homo sapiens, MCF7, read-out: IC50 Values, MCF-7) [nM] | times more cytotoxic against the MCF-7 cell line than the parent drug (MCF-7 cells; relative to daunorubicin and doxorubicin, respectively) [times] | fold more toxic to MCF-7 cells than the parent drug (MCF-7 cells; [3]) [fold] | IC50 (DU-145; DU-145, read-out: IC50 Values, DU-145/DMEM) [nM] | IC50 (DU-145; DU-145, read-out: IC50 Values, DU-145/RPMI-1640) [nM] | IC50 (PC-3; PC-3, read-out: IC50 Values, PC-3/DMEM) [nM] | IC50 (PC-3; PC-3, read-out: IC50 Values, PC-3/RPMI-1640) [nM] | IC50 (MCF-7/ADR cells; Homo sapiens, NCI/ADR-RES, read-out: IC50 Values, MCF-7-ADR) [nM] | fold higher cytotoxicity against MCF-7/ADR cells relative to the parent drug (MCF-7/ADR cells; [3]) | IC50 (LNCaP; read-out: IC50 Values, LNCaP/DMEM) [nM] | IC50 (LNCaP; read-out: IC50 Values, LNCaP/RPMI-1640) [nM] | degradation to daunorubicin [2, 4] [%] | fraction remaining intact [2, 4] [%] | degradation in DMSO solution ([2]; DMSO, after 2 h)
1 | COc1cccc2c1C(=O)c1c(O)c3c(c(O)c1C2=O)CC(O)(C(=O)CO)CC3OC1CC2C(OCN2CN2CO[C@@H]3C(C)O[C@H](OC4CC(O)(C(=O)CO)Cc5c(O)c6c(c(O)c54)C(=O)c4c(OC)cccc4C6=O)CC32)C(C)O1 (stereo partly drawn) [DOXF, bis(3′-N-(3′-N,4′-O-methylenedoxorubicinyl))methane] | < 10 | 1 | 150 | 150 | 1.5 | 2 | 4.5 | 0.5 | 0.5 | 10,000 fold | 0.5 | 0.5 | – | – | –
2 | N-acetyl-3′-N,4′-O-methylenedaunorubicin | – | – | – | – | – | – | – | – | – | – | – | – | 9 | 91 | no degradation

From patent US6677309B1, “Anti-cancer drug aldehyde conjugate drugs with enhanced cytotoxicity compounds, compositions and methods” (University Technology Corporation, priority 1997, dated 2004)
